# Test results: patent publication US9206241B2, “Modified prokaryotic ubiquitin-like protein and methods of use thereof” (priority 2012, dated 2015)
# “Also recorded” adds a separate entry of the source.
# Legend:
# lysates of Mtb = assay: Hydrolysis of substrate in Mtb lysates; format: biochemical, Mycobacterium tuberculosis
# DopE10A = DopE10A (Mycobacterium tuberculosis, UniProt P9WNU9, E10A)
sequence,measurement,setting,value
MAQEQTKRGGGGGDDDDIAGSTAAGQERREKLTEETDDLLDEIDDV LEENAEDFVRAYVQKGG-Glu(AMC) [1a],hydrolysis of substrate in lysate,lysates of Mtb,hydrolysis; also recorded: could not hydrolyze
same,activity of DopE10A on the substrate,DopE10A,no activity
